Source: patent US5849587A, “Method of inhibiting viral replication in eukaryotic cells and of inducing apoptosis of virally-infected cells” (Cornell Research Foundation, Inc., priority 1995, dated 1998)
“Also recorded” adds a separate entry of the source.

Tests used:
cellular protein TNF-α = test: TNF-α biosynthesis and secretion (ELISA) in PMA-induced ACH-2 cells; format: cell-based, human; details: 200 μM, PMA-induced ACH-2, FIG. 10
Deoxyhypusyl hydroxylase = target: T1, Deoxyhypusyl hydroxylase (Homo sapiens, UniProt Q9BU89); test: Cellular deoxyhypusyl hydroxylase (hypusine formation) inhibition, human B-cells and human smooth muscle cells; format: cell-based; details: for Deoxyhypusyl hydroxylase ID50 (cellular): concentration for half-maximal inhibition
T1 construct: endogenous in cells
T1 sequence (Q9BU89 1-302): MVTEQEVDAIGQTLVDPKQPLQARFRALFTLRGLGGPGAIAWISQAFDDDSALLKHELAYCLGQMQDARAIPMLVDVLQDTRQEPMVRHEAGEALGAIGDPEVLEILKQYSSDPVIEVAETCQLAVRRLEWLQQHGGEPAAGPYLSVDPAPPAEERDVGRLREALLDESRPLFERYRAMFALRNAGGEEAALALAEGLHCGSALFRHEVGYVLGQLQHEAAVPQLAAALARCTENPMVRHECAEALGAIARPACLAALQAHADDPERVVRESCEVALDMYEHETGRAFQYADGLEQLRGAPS
Procedure: The cell-free enzyme assay was performed to test a pilot peptidomimetic which can be equipped with hydroxypyridone warheads. The cell culture studies were performed to establish the inherent inhibitory potency of such hydroxypyridones.
DOHH Assay. The intracellular conversion of peptide-bound deoxyhypusine to peptidyl hypusine was determined after preincubation of human T lymphocyte-derived cells (i.e. ACH-2) [Clouse et al., J. Immunol. 142, 431-438 (1989), which is hereby incorporated by reference] with the hypusine inhibitors mimosine and HK-1 for 60 minutes, followed by labeling for 21 hours with ^3 H-spermidine (3.75 μCi/ml) in wells containing 3×10^6 cells suspended in 8 ml of serum-supplemented and antibiotic-containing RPMI 1640 medium. Cells were then split into two groups, one of them being harvested immediately to assess degree of DOHH inhibition, and the other harvested after transfer of the cells into inhibitor-free medium for 2 hours to measure resumption of DOHH activity. Harvesting consisted in precipitation of washed cells with 10% TCA containing 1 mM each of putrescine, spermidine, and spermine. Cellular proteins from each sample were then hydrolyzed in 6N HCl at 110° C. for 16 hours. The hydrolysate was analyzed for labeled amino acids on an amino acid analyzer by published methods [Park et al., J. Biol. Chem., 257, 7217-7222 (1982), which is hereby incorporated by reference]. The retention times of hypusine and deoxyhypusine were determined from standards. Similar studies were performed in human B-cells and human smooth muscle cells.
The concentration required for half-maximal inhibition (ID50) of the cellular enzyme activity is identified for each compound.

[1] = test system: HIV-1 producing ACH-2 cells; test: Electron microscopy of PMA-induced ACH-2 cells; format: cell-based, human
Procedure: FIGS. 11A and B show, representative ultrastructural findings observed in PMA-induced/untreated (FIG. 11A) and PMA-induced/mimosine-treated (FIG. 11B) ACH-2 cells immediately at the end of the 18-hour incubation period. […] Note, however, that such changes occur rapidly after withdrawal of the inhibitors (compare to time course detailed in FIGS. 12A and B and FIGS. 14A-H). [Magnification: 9100×].
3. Ultrastructural investigation of antiviral effect. ACH-2 cells were incubated with hypusine inhibitors (mimosine, HK-1) and induced with PMA as outlined in Example II A. Harvesting, fixation of cells, and electron microscopy were performed according to established techniques [Michael et al., J. Virol 65, 1291-1303 (1991), which is hereby incorporated by reference].

[2] = test system: uninfected parent cell line CEM; test: Flow cytometry of genomic DNA 3'-ends (apoptosis), uninfected parent cells; format: cell-based, human; details: for genomic DNA 3'-ends, CEM: 200 μM, 18 hours, FIG. 13
Procedure: FIGS. 13A-F show the flowcytometrically determined distribution of the number of fluorescently labeled 3'-ends in the genomic DNA of HIV-1 producing ACH-2 cells ("ACH-2") and their uninfected parent cell line CEM ("CEM"), both receiving no treatment ("NT") or treatment for 18 hours with either 200 μM mimosine ("MIM") or 200 μM HK-1 ("HK1"). […] This is the hallmark of irreversible auto-destruction of a cell's genetic library.
FIGS. 14A-H show the flowcytometrically determined distribution of the number of fluorescently labeled 3'-ends in the genomic DNA of HIV-1 producing ACH-2 cells ("ACH-2") and of their uninfected parent cell line CEM ("CEM"), both receiving no treatment ("NT") or treatment for 18 hours with 200 μM mimosine ("MIM"), followed by inhibitor withdrawal and reincubation in fresh medium for 2 hours.
ACH-2 cells were incubated with hypusine inhibitors (mimosine, HK-1) and induced with PMA as outlined in Example II A, except that the duration of exposure to inhibitor was extended to 18-21 hours and that cells were labeled as detailed in Example I B. Half of the cells were then harvested and processed for detection of apoptosis, while the other half was washed free of inhibitors and re-incubated in fresh medium for 2-4 hours, followed by harvesting and processing for detection of […] apoptosis. Using the same protocol, cultures of the parent CEM cell line were incubated in parallel. For assessment of apoptosis, cell viability was measured by exclusion of the dye trypan blue, by retention of the ^3 H-spermidine-derived intracellular radioactivity incorporated into the obligatory intracellular protein eIF-5A, and by direct fluorescence detection of the intemucleosomal degradation of genomic DNA. Such irreversible genome degradation signals the activation of pre-programmed suicide mechanisms within any cell, which is the hallmark of apoptosis, and inescapably results in cell death [Compton, Cancer Metast. 11, 105-119 (1992), which is hereby incorporated by reference]. For the latter method, a commercially available kit was used (Oncor, Gaithersburg, Md.). […]

SMILES | TNF-α biosynthesis and secretion (cellular protein TNF-α) | inhibition of deoxyhypusyl hydroxylase activity, i.e. hypusine formation (Deoxyhypusyl hydroxylase) | Deoxyhypusyl hydroxylase ID50 (cellular) (Deoxyhypusyl hydroxylase) | cells with early apoptotic nuclear changes ([1]; PMA-induced ACH-2, FIG. 11B) | number of viral particles in extracellular space ([1]; PMA-induced ACH-2, end of 18-hour incubation, FIG. 11B) | ultrastructural appearance of treated cells ([1]; PMA-induced ACH-2, end of incubation, FIG. 11B) | average fluorescence peak after incubation and withdrawal, CEM ([2]; 200 μM 18 hours, then 2 hours withdrawal, FIG. 14) | genomic DNA 3'-ends, CEM [2]
N[C@@H](Cn1ccc(=O)c(O)c1)C(=O)O [L-Mimosine] | absence of such a suppressive effect | efficiently inhibit deoxyhypusyl hydroxylase activity | 65 | about 20% | marked reduction in the number of viral particles; also recorded: prominent reduction in the number of infectious particles in the extracellular space | normal ultrastructural appearance of the treated ACH-2 cells; also recorded: still lacks overt morphological signs of cell damage | the position and shape of the average fluorescence peak in CEM cells did not change; also recorded: Only the virally infected ACH-2, but not the parent CEM cells reacted to the inhibitor | did not affect the position of this peak in uninfected CEM cells; also recorded: Only the virally-infected ACH-2, but not the parent CEM cells reacted to the inhibitors
Cc1c(O)c(=O)ccn1C [HK-1, 1,2-dimethyl-3-hydroxypyrid-4-one] | absence of such a suppressive effect | – | 90 | – | – | – | – | did not affect the position of this peak in uninfected CEM cells; also recorded: Only the virally-infected ACH-2, but not the parent CEM cells reacted to the inhibitors
